pEC50, pIC50: −log10 of the molar value. Values after ≈ are worked out from the molar mass of the structure shown.
Assays:
[1] = biological target: recombinant human prostanoid EP2 receptor (Homo sapiens (Human), UniProt P43116); assay: Human prostanoid EP2 receptor cellular functional assay (cAMP, HTRF); assay type: cell-based; conditions: for pEC50: CHO cells expressing recombinant human EP2, cAMP by HTRF, 30 min, 37° C., read-out: In vitro functional assay EP2 (h) EC50; for In vitro functional assay EP2 (h) % response: percent of control specific agonist response (10 μM PGE2)
Chain of recombinant human prostanoid EP2 receptor (P43116 whole entry): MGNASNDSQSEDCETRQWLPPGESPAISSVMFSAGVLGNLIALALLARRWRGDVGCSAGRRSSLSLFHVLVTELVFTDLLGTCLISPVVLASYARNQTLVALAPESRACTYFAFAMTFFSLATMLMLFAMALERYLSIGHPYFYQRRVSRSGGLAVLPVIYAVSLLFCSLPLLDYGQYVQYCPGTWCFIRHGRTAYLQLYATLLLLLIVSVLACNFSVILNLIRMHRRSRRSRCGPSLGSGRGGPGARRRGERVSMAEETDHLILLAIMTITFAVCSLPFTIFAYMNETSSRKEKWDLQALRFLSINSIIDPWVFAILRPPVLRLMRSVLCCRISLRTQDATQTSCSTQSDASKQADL
Protocol: Test 1.2: Human Prostanoid EP2 Receptor Cellular Functional Assay
Human CHO cells expressing the recombinant human prostanoid EP2 receptor were suspended in assay medium (HBSS buffer (Invitrogen) containing 20 mM HEPES (pH7.4) and 500 μM isobutyl-methylxanthine IBMX) and plated out to yield approximately 1×10^4 cells/well in a 96-well. Following this, cells were incubated with agonists for 30 min in the presence of the test compounds. For stimulated control measurements, separate assay wells contain 10 μM PGE2 (control specific agonist). All incubations were carried out at 37° C. in a 5% CO2 atmosphere. Following incubation, the amount of cAMP in each well was determined by HTRF method. The cells are lysed and the fluorescence acceptor (D2-labeled cAMP) and fluorescence donor (anti-cAMP antibody labeled with europium cryptate) are added. After 60 min at room temperature, the fluorescence transfer is measured at λ ex=337 nm and λ em=620 and 665 nm using a microplate reader (Rubystar, BMG).
The cAMP concentration is determined by dividing the signal measured at 665 nm by that measured at 620 nm (ratio).
The standard reference agonist PGE2 was tested at several concentrations to generate a concentration-response curve to determined EC50.
(§1) Analysis and Expression of Results
The results are expressed as a percent of control specific agonist response ((measured specific response/control specific agonist response)×100) obtained in the presence of the test compounds. The EC50 values (concentration producing a half-maximal specific response) were determined by non-linear regression analysis of the concentration-response curves generated with mean replicate values using Hill equation curve fitting (Y=D+[(A−D)/(1+(C/C50)nH)], where Y=specific response, D=minimum specific response, A=maximum specific response, C=compound concentration, and C50=EC50 and nH=slope factor). This analysis was performed using a software developed at Cerep (Hill software) and validated by comparison with data generated by the commercial software SigmaPlot® 4.0 for Windows® (© 1997 by SPSS Inc.).

[2] = biological target: recombinant human prostanoid EP4 receptor (Homo sapiens (Human), UniProt P35408); assay: Human prostanoid EP4 receptor binding assay ([3H]PGE2 displacement); conditions: HEK-293(T) membranes, 0.5 nM [3H]PGE2, 120 min at 22° C.; NC: not calculable; read-out: In vitro potency EP4 (h) IC50
Chain of recombinant human prostanoid EP4 receptor (P35408 whole entry): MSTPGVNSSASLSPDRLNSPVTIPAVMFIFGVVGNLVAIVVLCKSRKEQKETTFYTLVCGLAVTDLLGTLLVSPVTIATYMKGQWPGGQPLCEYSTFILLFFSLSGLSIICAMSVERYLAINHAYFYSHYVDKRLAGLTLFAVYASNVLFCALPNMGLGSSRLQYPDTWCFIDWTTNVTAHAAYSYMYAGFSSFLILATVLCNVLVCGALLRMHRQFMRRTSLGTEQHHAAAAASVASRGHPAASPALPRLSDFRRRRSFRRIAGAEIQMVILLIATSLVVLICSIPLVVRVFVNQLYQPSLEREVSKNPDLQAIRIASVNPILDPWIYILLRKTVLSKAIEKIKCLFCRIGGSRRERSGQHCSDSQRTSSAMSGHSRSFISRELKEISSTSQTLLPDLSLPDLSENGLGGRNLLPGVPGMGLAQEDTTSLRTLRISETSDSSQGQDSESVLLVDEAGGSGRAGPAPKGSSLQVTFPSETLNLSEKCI
Protocol: Test 1.1: Human Prostanoid EP4 Receptor Binding Assay
Cell membrane homogenate from Human embryonic kidney HEK-293(T) cells expressing recombinant human prostanoid EP4 receptor was used to perform Prostanoid receptor radioligand binding assays.
The competition reaction was initiated by incubation of membrane protein homogenate (20 μg protein) for 120 min at 22° C. with 0.5 nM [^3H]PGE2 ligand in the absence or presence of the test compound in a buffer containing 10 mM MES/KOH (pH 6.0), 10 mM MgCl2 and 1 mM EDTA.
Non-specific binding was determined in the presence of 10 μM PGE2 (the corresponding non-radioactive prostanoid). Affinity of the compound binding to hEP4 receptor was measured by displacement of the radiolabeled ligand in the presence of varying doses of tested compound.
Incubations were terminated by rapid filtration under vacuum through glass fiber filters (GF/B, Packard) presoaked with 0.3% PEI and washed several times with ice-cold 50 mM Tris-HCl using a 96-sample cell harvester (Unifilter, Packard).
The filters were dried and the residual radioactivity bound to the individual filters determined with addition of scintillation cocktail (Microscint 0, Packard) by a scintillation counter (Topcount, Packard).
The results were expressed as a percent inhibition of the control radioligand specific binding.
The standard reference compound PGE2, was tested in at several concentrations to obtain a competition curve to determined IC50.
as §1
The specific ligand binding to the receptors is defined as the difference between the total binding and the nonspecific binding determined in the presence of an excess of unlabelled ligand. The results are expressed as a percent of control specific binding ((measured specific binding/control specific binding)×100) obtained in the presence of the test compounds. The IC50 values (concentration causing a half-maximal inhibition of control specific binding) and Hill coefficients (nH) were determined by non-linear regression analysis of the competition curves generated with mean replicate values using Hill equation curve fitting (Y=D+[(A−D)/(1+(C/C50)nH)], where Y=specific binding, D=minimum specific binding, A=maximum specific binding, C=compound concentration, C50=IC50, and nH=slope factor). This analysis was performed using a software developed at Cerep (Hill software) and validated by comparison with data generated by the commercial software SigmaPlot® 4.0 for Windows® (© 1997 by SPSS Inc.). The inhibition constants (Ki) were calculated using the Cheng Prusoff equation (Ki=IC50/(1+(L/KD)), where L=concentration of radioligand in the assay, and KD=affinity of the radioligand for the receptor). A scatchard plot is used to determine the Kd.

[3] = Solubility at equilibrium; assay type: physicochemical; conditions: thermodynamic from solid; in the diluent, room temperature, n=1, HPLC quantification
Protocol: Solubility of the test materials was evaluated on n=1 trial, following the procedure below:
2.5 mg of each compound for solubility testing were dissolved in 5 mL of the diluent, an initial concentration of 500 ug/mL. The mixture was first vortexed for 15 seconds to allow a good wetting of the API, then sonicated for 5 minutes to promote solubilisation. The vortex/sonication cycle was repeated 3 times. The suspension was stirred at room temperature using a magnetic stirrer at 300 rpm. This mixture is observed at 4 h, 24 h and 48 h to determine if the test compound has dissolved. At each time point if the compound is completely solubilised a further 5 mg of the test compound is added and the process repeated.
When no more test compound will dissolve in the diluent, an aliquot of 0.5 mL of the suspension was withdrawn and centrifuged 3×2 min at 13400 rpm. The supernatant for HPLC quantification was filtered using 0.2 μm Pall Aerodisc Nylon 13 mm membrane and quantified by comparing to the calibration curve, using the method: column: Nucleodur C18 ISIS 3 μm 4.6×125 mm, Mobile Phase (CH3COOH 0.05% in H2O and ACN), Flow rate: 1 ml/min, Wavelength: λ=240 nm (IIa and IIc) or […] (IId), Injected volume: 10 μl, Gradient of concentration: from 30% B to 100% B in 6 min.

[4] = test system: Laser-Induced Hypertensive Cynomolgus Monkey; assay: Intraocular pressure in laser-induced hypertensive cynomolgus monkey; assay type: in vivo; conditions: 0.01% topical, 50 μl drop to glaucomatous eye once daily for 5 days; FIG. 1
Protocol: Laser-Induced Hypertensive Cynomolgus Monkey
Ten adult female cynomolgus monkeys, each weighing 3-5 kg, in which glaucoma had been induced unilaterally by diode laser photocoagulation of the mid-trabecular meshwork, were used in this study.
Intraocular pressure (IOP) was measured at 0 hr (before drug administration) and then hourly until 6 hrs after drug administration on one baseline day, one vehicle-treatment day, and treatment days 1, 3, and 5 with 0.01% of compound II(d).
Compound II(d) was tested in two groups of 4 monkeys for a total of 8 monkeys. Following one baseline day (untreated) and one vehicle-treatment day (50 μl (25 μl×2), drop of vehicle to the glaucomatous eye at 9:30 (a 50 μl drop (25 μl×2) of compound (II(d)) were topically applied to the glaucomatous eye only once daily at 9:30 am for 5 consecutive days.
Slit-lamp examination for the detection of aqueous humor flare and cells was performed in a dark room before drug administration and at 1, 3 and 5 hrs after dosing on baseline day and at the same times on treatment days 1, 3 and 5.
Two-tailed paired and unpaired t test and the ANOVA test were used for statistical analysis.

Cc1cc(-c2cccc(F)c2)cc(CNc2c(F)ccc(OCC(=O)O)c2C)c1F [I(ad), 2-[4-fluoro-3-[[2-fluoro-5-(3-fluorophenyl)-3-methyl-phenyl]methylamino]-2-methyl-phenoxy]acetic acid]
pEC50 [1]: 8.70
In vitro functional assay EP2 (h) % response [1]: 101%
pIC50 [2]: < 6.52

COC(=O)COc1ccc(F)c(NCc2cc(-c3cccc(F)c3)ccc2F)c1F [II(c), Methyl 2-[2,4-difluoro-3-[[2-fluoro-5-(3-fluorophenyl)phenyl]methylamino]phenoxy]acetate]
solubility [3]: 6780 µg/mL (≈ 16.2 mM)

Cc1c(F)cc(-c2cccc(F)c2)cc1CNc1c(F)ccc(OCC(=O)O)c1F [I(aa), 2-[2,4-difluoro-3-[[3-fluoro-5-(3-fluorophenyl)-2-methylphenyl]methylamino]phenoxy]acetic acid]
pEC50 [1]: 8.52
In vitro functional assay EP2 (h) % response [1]: 97%
pIC50 [2]: < 6.52

CC(C)OC(=O)COc1ccc(F)c(NCc2cc(-c3cccc(F)c3)ccc2F)c1F [II(d), Isopropyl 2-[2,4-difluoro-3-[[2-fluoro-5-(3-fluorophenyl)phenyl]methylamino]phenoxy]acetate]
pEC50 [1]: < 6.52
In vitro functional assay EP2 (h) % response [1]: 44%
solubility [3]: 711 µg/mL (≈ 1.59 mM)
overall IOP reduction [4]: 22%

COc1c(C)cc(-c2cccc(F)c2)cc1CNc1c(C)ccc(OCC(=O)O)c1C [I(al), 2-[3-[[5-(3-fluorophenyl)-2-methoxy-3-methyl-phenyl]methylamino]-2,4-dimethyl-phenoxy]acetic acid]
pEC50 [1]: 9.05
In vitro functional assay EP2 (h) % response [1]: 70%
pIC50 [2]: < 6.52

O=C(O)COc1cccc(CN(Cc2ccc(-n3cccn3)cc2)S(=O)(=O)c2cccnc2)c1 [PF-04217329, taprenepag, reference compound]
solubility [3]: 542 µg/mL (≈ 1.13 mM)

CCOC(=O)COc1ccc(F)c(NCc2cc(-c3cccc(F)c3)ccc2F)c1F [II(a), ethyl 2-[2,4-difluoro-3-[[2-fluoro-5-(3-fluorophenyl)phenyl]methylamino]phenoxy]acetate]
solubility [3]: 8120 µg/mL (≈ 18.7 mM)

— patent US9249085B2, “Aniline derivatives, their preparation and their therapeutic application” (FOVEA PHARMACEUTICALS, priority 2011, dated 2016)
